Laboratory results published in patent publication US8481531B2, “Bicyclic heterocyclyl derivatives as FGFR kinase inhibitors for therapeutic use” (Astex Therapeutics Ltd, priority 2009, dated 2013).

Key:
[1] = tested on: parental wild-type Ba/F3 cells; assay: Ba/F3 (WT) cell proliferation assay (Alamar Blue); assay type: cell-based; conditions: BaF3, 72 hours, read-out: BaF3 WT prolif; for IC50: with mouse IL-3
Description: (§1) Ba/F3-TEL-FGFR3 & Ba/F3 (WT) Cell Proliferation Assays
(§2) Stably transfected Ba/F3-TEL-FGFR3 cells were plated out into black 96-well tissue culture plates with clear bottoms in RPMI medium containing 10% FBS and 0.25 mg/ml G418 at a density of 5×10^3 cells/well (200 μl per well). The parental wild-type Ba/F3 cells (DSMZ no.: ACC 300) were plated out into black 96-well tissue culture plates with clear bottoms in RPMI medium containing 10% FBS and 2 ng/ml mouse IL-3 (R&D Systems) at a density of 2.5×10^3 cells/well (200 μl per well). Plates were placed in an incubator overnight before adding the compounds the following day. Dilutions of compounds were made in DMSO starting at 10 mM and were diluted into the wells to give a final DMSO concentration of 0.1% in assay. Compounds were left on the cells for 72 hours before the plates were removed from the incubator and 20 μl of Alamar Blue™ (Biosource) was added to each well. Plates were placed in the incubator for 4-6 hours before reading plates at 535 nm (excitation)/590 nm (emission) on a Fusion plate reader (Packard). Where inhibition is high an IC50 can be determined.

[2] = biological target: T1, FGFR3 (Homo sapiens, UniProt P22607); assay: FGFR3 in vitro kinase inhibitory activity assay (TRF); assay type: biochemical; conditions: 8 μM ATP, 3 hours; read-out: FGFR3 IC50(μM) or % I
T1 construct: purchased Upstate
T1 sequence (P22607 23-806): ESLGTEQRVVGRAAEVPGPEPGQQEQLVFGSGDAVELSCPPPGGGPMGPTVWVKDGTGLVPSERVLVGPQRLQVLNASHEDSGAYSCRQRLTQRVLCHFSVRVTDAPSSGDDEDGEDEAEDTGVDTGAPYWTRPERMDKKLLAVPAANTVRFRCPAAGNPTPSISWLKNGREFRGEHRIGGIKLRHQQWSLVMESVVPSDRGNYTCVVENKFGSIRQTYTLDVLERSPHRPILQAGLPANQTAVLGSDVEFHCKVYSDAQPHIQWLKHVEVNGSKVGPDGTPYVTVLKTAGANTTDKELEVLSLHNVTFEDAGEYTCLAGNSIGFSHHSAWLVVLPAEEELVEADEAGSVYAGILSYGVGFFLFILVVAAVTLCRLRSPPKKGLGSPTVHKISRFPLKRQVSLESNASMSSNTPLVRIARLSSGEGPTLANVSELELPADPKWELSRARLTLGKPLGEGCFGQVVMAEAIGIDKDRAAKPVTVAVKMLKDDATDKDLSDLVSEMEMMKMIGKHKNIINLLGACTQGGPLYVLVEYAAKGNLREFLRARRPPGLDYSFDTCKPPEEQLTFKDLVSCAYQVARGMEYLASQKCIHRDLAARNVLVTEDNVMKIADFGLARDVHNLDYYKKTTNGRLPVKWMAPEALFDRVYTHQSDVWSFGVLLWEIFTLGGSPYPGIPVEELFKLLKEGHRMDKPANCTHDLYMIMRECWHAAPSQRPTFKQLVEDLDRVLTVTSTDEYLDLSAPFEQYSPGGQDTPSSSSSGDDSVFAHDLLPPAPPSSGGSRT
Description: (§3) FGFR3, VEGFR2 and PDGFR in vitro Kinase Inhibitory Activity Assays
(§4) Enzymes (from Upstate), prepared at 2× final concentration, were incubated with test compounds, biotinylated Flt3 substrate (biotin-VASSDNEYFYVDF) (Cell Signalling Technology Inc.) and ATP in the appropriate assay buffer (Table 1). The reaction was allowed to proceed for 3 hours (FGFR3), 1 hour (VEGFR2, PDGFR-beta) at room temperature on a plate shaker at 700 rpm before being stopped with 35 mM EDTA, pH 8 (FGFR3, VEGFR2) or 55 mM EDTA, pH 8 (PDGFR-beta). 5× detection mix (50 mM HEPES pH 7.5, 0.1% BSA, 11.34 nM Eu-anti-pY (PY20) (PerkinElmer) 74 nM SA-XL665 (Cisbio) for FGFR3, 50 mM HEPES, pH 7.5, 0.1% BSA, 11.34 nM Eu-anti-pY (PY20), 187.5 nM SA-XL665 for VEGFR2 and 50 mM HEPES, pH 7.5, 0.1% BSA, 11.34 nM Eu-anti-pY (PT66) (PerkinElmer), 375 nM SA-XL665 (Cisbio) for PDGFR-beta) was then added to each well and the plate sealed and incubated at room temperature for one hour on a plate shaker at 700 rpm. The plate was then read on a Packard Fusion plate reader or a BMG Pherastar both in TRF mode.

[3] = biological target: T2, VEGFR2 (Homo sapiens, UniProt P35968); assay: VEGFR2 in vitro kinase inhibitory activity assay (TRF); assay type: biochemical; conditions: 0.5 μM ATP, 1 hour; read-out: VEGFR2 IC50(μM) or % I
T2 construct: purchased Upstate
T2 sequence (P35968 20-1356): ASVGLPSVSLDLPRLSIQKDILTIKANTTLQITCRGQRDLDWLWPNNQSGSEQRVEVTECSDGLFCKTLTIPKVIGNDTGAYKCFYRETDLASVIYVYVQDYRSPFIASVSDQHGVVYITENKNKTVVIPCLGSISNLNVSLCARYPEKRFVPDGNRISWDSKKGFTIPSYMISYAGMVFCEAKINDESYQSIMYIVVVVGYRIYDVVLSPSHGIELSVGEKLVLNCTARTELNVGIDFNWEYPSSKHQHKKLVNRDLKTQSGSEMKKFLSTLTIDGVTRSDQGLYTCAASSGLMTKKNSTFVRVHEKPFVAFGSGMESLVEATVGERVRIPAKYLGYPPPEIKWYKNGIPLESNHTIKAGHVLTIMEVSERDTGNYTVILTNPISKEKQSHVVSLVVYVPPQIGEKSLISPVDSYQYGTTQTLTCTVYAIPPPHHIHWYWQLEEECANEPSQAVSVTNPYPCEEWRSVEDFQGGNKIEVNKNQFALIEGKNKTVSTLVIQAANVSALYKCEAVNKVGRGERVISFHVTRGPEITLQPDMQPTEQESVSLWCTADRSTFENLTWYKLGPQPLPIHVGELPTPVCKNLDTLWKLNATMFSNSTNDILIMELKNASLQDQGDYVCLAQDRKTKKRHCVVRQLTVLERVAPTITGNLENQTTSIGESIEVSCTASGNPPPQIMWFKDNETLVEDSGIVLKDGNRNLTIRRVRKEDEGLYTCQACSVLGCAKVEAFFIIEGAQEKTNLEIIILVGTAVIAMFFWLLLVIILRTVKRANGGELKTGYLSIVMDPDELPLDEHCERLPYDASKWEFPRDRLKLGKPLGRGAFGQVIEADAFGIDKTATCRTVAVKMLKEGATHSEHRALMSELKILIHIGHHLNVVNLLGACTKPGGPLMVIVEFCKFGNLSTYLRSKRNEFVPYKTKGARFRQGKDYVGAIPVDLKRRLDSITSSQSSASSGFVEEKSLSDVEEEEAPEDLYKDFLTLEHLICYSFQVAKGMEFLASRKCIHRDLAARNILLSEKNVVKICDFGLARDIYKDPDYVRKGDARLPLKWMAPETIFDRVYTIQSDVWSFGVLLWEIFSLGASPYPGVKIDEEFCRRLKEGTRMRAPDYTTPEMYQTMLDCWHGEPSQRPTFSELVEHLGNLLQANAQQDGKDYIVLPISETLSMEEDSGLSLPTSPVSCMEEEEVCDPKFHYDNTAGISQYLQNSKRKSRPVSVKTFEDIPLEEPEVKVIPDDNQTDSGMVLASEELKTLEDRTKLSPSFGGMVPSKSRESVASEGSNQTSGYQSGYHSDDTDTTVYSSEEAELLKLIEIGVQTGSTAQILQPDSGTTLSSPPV
Description: as §3, §4

[4] = biological target: T3, Ba/F3-TEL-FGFR3 cells (Homo sapiens, UniProt P22607); assay: Ba/F3-TEL-FGFR3 cell proliferation assay (Alamar Blue); assay type: cell-based; conditions: 72 hours; for GI50: read-out: BaF3-TEL-FGFR3 prolif; for BaF3-TEL-FGFR3 prolif (μM): % at 10.0 μM
T3 construct: fused on or other part: P41212 (Transcription factor ETV6)
T3 sequence (P22607 whole entry, change not shown, the tested form may be a part): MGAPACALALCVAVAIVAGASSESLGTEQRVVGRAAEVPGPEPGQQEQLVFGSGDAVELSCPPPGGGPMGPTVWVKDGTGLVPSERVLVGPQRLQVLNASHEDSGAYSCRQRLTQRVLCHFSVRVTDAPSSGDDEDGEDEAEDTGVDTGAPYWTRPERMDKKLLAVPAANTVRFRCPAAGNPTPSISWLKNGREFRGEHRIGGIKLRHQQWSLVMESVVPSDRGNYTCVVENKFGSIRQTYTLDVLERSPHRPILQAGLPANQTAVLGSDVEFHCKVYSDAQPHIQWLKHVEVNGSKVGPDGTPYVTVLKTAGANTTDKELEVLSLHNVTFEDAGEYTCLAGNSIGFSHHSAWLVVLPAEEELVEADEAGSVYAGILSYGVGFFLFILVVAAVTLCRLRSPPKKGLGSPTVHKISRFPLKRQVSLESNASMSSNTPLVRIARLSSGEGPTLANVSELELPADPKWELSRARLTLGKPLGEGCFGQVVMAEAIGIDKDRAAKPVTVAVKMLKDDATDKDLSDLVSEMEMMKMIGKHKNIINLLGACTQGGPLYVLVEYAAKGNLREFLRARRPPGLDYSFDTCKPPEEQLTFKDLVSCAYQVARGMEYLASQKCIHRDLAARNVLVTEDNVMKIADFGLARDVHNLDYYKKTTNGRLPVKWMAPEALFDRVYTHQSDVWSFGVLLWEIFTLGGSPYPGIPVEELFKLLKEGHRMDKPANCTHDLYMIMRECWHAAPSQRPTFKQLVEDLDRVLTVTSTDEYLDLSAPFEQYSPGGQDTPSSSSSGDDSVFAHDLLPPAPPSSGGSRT
Description: as §1, §2

Question: For `Cc1cc(CON=Cc2ccn3c(-c4cccc(NC(=O)NCC(F)(F)F)c4)cnc3c2)no1` [Compound 1-17, 1-(3-{7-[(5-Methyl-isoxazol-3-ylmethoxyimino)-methyl]-imidazo[1,2-a]pyridin-3-yl}-phenyl)-3-(2,2,2-trifluoro-ethyl)-urea], which IC50 [1] is on record?
Answer: Its IC50 is 4100 nM.

Question: And the IC50 [2]?
Answer: The IC50 was 0.013 µM.

Question: What about the IC50 [3] of the same compound?
Answer: Its IC50 is 0.66 µM.

Question: What about the GI50 [4] of the same compound?
Answer: Its GI50 is 230 nM.

Question: What does the source list for `O=C(NCC(F)(F)F)Nc1cccc(-c2cnc3cc(/C=N/OCCCO)ccn23)c1` [Compound 1-18, 1-(3-{7-[(3-Hydroxy-propoxyimino)-methyl]-imidazo[1,2-a]pyridin-3-yl}-phenyl)-3-(2,2,2-trifluoro-ethyl)-urea]?
Answer: IC50 [1]: 4700 nM; IC50 [2]: 0.019 µM; IC50 [3]: 0.4 µM; GI50 [4]: 240 nM

Question: What does the source list for `N=C(N)Nc1nc(CON=Cc2ccn3c(-c4cccc(NC(=O)NCC(F)(F)F)c4)cnc3c2)cs1` [Compound 1-19, 1-(3-{7-[(2-Guanidino-thiazol-4-ylmethoxyimino)-methyl]-imidazo[1,2-a]pyridin-3-yl}-phenyl)-3-(2,2,2-trifluoro-ethyl)-urea]?
Answer: IC50 [1]: 5200 nM; IC50 [2]: 0.023 µM; IC50 [3]: 0.67 µM; GI50 [4]: 2400 nM

Question: With `C/C(=N\O)c1ccn2c(-c3cccc(NC(=O)NCC(F)(F)F)c3)cnc2c1` [Compound 1-21, 1-[3-(7-{1-Hydroxyimino-ethyl}-imidazo[1,2-a]pyridin-3-yl)-phenyl]-3-(2,2,2-trifluoro-ethyl)-urea] as the compound, how does the inhibition at 10 µM ([1]; Mus musculus) read?
Answer: The inhibition at 10 µM was 17%.

Question: What about the IC50 [2] of the same compound?
Answer: The IC50 was 0.0019 µM.

Question: What about the IC50 [3] of the same compound?
Answer: Its IC50 is 0.03 µM.

Question: What about the GI50 [4] of the same compound?
Answer: The GI50 was 46 nM.

Question: `CON=C(c1ccn2c(-c3cccc(NC(=O)NCC(F)(F)F)c3)cnc2c1)C1CC1` [Compound 1-24, 1-[3-(7-{Cyclopropyl-methoxyimino-methyl}-imidazo[1,2-a]pyridin-3-yl)-phenyl]-3-(2,2,2-trifluoro-ethyl)-urea] was tested. Which inhibition at 1 µM ([1]; Mus musculus, % at 1.00 μM) did it give?
Answer: The inhibition at 1 µM was 38%.

Question: What about the IC50 [2] of the same compound?
Answer: Its IC50 is 0.015 µM.

Question: And the IC50 [3]?
Answer: The IC50 was 0.23 µM.

Question: And the GI50 [4]?
Answer: Its GI50 is 260 nM.

Question: What does the source list for `CCC(=NOC)c1ccn2c(-c3cccc(NC(=O)NCC(F)(F)F)c3)cnc2c1` [Compound 1-25, 1-[3-(7-{1-Methoxyimino-propyl}-imidazo[1,2-a]pyridin-3-yl)-phenyl]-3-(2,2,2-trifluoro-ethyl)-urea]?
Answer: inhibition at 3 µM ([1]; Mus musculus): 46%; IC50 [2]: 0.011 µM; IC50 [3]: 0.24 µM; GI50 [4]: 320 nM

Question: How did the inhibition at 10 µM ([1]; Mus musculus) turn out when `CCC(=NO)c1ccn2c(-c3cccc(NC(=O)NCC(F)(F)F)c3)cnc2c1` [Compound 1-26, 1-[3-(7-{1-Hydroxyimino-propyl}-imidazo[1,2-a]pyridin-3-yl)-phenyl]-3-(2,2,2-trifluoro-ethyl)-urea] was run?
Answer: The inhibition at 10 µM was 40%.

Question: What about the IC50 [2] of the same compound?
Answer: Its IC50 is 0.0045 µM.

Question: And the IC50 [3]?
Answer: Its IC50 is 0.083 µM.

Question: And the GI50 [4]?
Answer: The GI50 was 120 nM.

Question: What does the source list for `CON=C(c1ccn2c(-c3cccc(NC(=O)NCC(F)(F)F)c3)cnc2c1)C1CCC1` [Compound 1-27, 1-[3-(7-{Cyclobutyl-methoxyimino-methyl}-imidazo[1,2-a]pyridin-3-yl)-phenyl]-3-(2,2,2-trifluoro-ethyl)-urea]?
Answer: IC50 [1]: 1500 nM; IC50 [2]: 0.08 µM; IC50 [3]: 1.2 µM; GI50 [4]: 1300 nM

Question: For `O=C(NCC(F)(F)F)Nc1cccc(-c2cnc3cc(C(=NO)C4CCC4)ccn23)c1` [Compound 1-28, 1-[3-(7-{Cyclobutyl-hydroxyimino-methyl}-imidazo[1,2-a]pyridin-3-yl)-phenyl]-3-(2,2,2-trifluoro-ethyl)-urea], which inhibition at 3 µM ([1]; Mus musculus) is on record?
Answer: Its inhibition at 3 µM is 43%.

Question: And the IC50 [2]?
Answer: The IC50 was 0.022 µM.

Question: What about the IC50 [3] of the same compound?
Answer: Its IC50 is 0.33 µM.

Question: What about the GI50 [4] of the same compound?
Answer: Its GI50 is 570 nM.

Question: `CON=C(CC1CC1)c1ccn2c(-c3cccc(NC(=O)NCC(F)(F)F)c3)cnc2c1` [Compound 1-29, 1-[3-(7-{2-Cyclopropyl-1-methoxyimino-ethyl}-imidazo[1,2-a]pyridin-3-yl)-phenyl]-3-(2,2,2-trifluoro-ethyl)-urea] was tested. Which inhibition at 10 µM ([1]; Mus musculus) did it give?
Answer: Its inhibition at 10 µM is 16%.

Question: What about the IC50 [2] of the same compound?
Answer: The IC50 was 0.059 µM.

Question: What about the IC50 [3] of the same compound?
Answer: Its IC50 is over 1 µM.

Question: And the “BaF3-TEL-FGFR3 prolif (μM)” value [4]?
Answer: Its value is 28.0% at.

Question: How did the inhibition at 10 µM ([1]; Mus musculus) turn out when `O=C(NCC(F)(F)F)Nc1cccc(-c2cnc3cc(C(CC4CC4)=NO)ccn23)c1` [Compound 1-30, 1-[3-(7-{2-Cyclopropyl-1-hydroxyimino-ethyl}-imidazo[1,2-a]pyridin-3-yl)-phenyl]-3-(2,2,2-trifluoro-ethyl)-urea] was run?
Answer: Its inhibition at 10 µM is 20%.

Question: And the IC50 [2]?
Answer: The IC50 was 0.019 µM.

Question: What about the IC50 [3] of the same compound?
Answer: The IC50 was 0.29 µM.

Question: What about the “BaF3-TEL-FGFR3 prolif (μM)” value [4] of the same compound?
Answer: Its value is 43.0% at.

Question: What does the source list for `CC(C)Oc1cc(NC(=O)NCC(F)(F)F)cc(-c2cnc3cc(/C(=N/O)C4CC4)ccn23)c1` [Compound 1-31, 1-[3-(7-{Cyclopropyl-hydroxyimino-methyl}-imidazo[1,2-a]pyridin-3-yl)-5-isopropoxy-phenyl]-3-(2,2,2-trifluoro-ethyl)-urea]?
Answer: IC50 [1]: 6200 nM; IC50 [2]: 0.023 µM; IC50 [3]: 1.34 µM; GI50 [4]: 470 nM

Question: Which results are given for `O=C(NCC(F)(F)F)Nc1cccc(-c2cnc3cc(/C(=N/OCCO)C4CC4)ccn23)c1` [Compound 1-32, 1-[3-(7-{Cyclopropyl-[2-hydroxy-ethoxyimino]-methyl}-imidazo[1,2-a]pyridin-3-yl)-phenyl]-3-(2,2,2-trifluoro-ethyl)-urea]?
Answer: inhibition at 10 µM ([1]; Mus musculus): 50%; IC50 [2]: 0.072 µM; IC50 [3]: 0.96 µM; GI50 [4]: 1100 nM

Question: What does the source list for `O=C(NCC(F)(F)F)Nc1cccc(-c2cnc3cc(/C(=N\OCCO)C4CC4)ccn23)c1` [Compound 1-33, 1-[3-(7-{Cyclopropyl-[2-hydroxy-ethoxyimino]-methyl}-imidazo[1,2-a]pyridin-3-yl)-phenyl]-3-(2,2,2-trifluoro-ethyl)-urea]?
Answer: IC50 [1]: 11000 nM; IC50 [2]: 0.018 µM; IC50 [3]: 0.18 µM; GI50 [4]: 250 nM

Question: With `CN1CCC(NCCCON=Cc2ccn3c(-c4cccc(NC(=O)NCC(F)(F)F)c4)cnc3c2)CC1` [Compound 1-34, 1-[3-(7-{[3-(1-Methyl-piperidin-4-ylamino)-propoxyimino]-methyl}-imidazo[1,2-a]pyridin-3-yl)-phenyl]-3-(2,2,2-trifluoro-ethyl)-urea] as the compound, how does the inhibition at 10 µM ([1]; Mus musculus) read?
Answer: Its inhibition at 10 µM is 0%.

Question: What about the IC50 [2] of the same compound?
Answer: The IC50 was 0.038 µM.

Question: What about the IC50 [3] of the same compound?
Answer: The IC50 was 0.26 µM.

Question: And the “BaF3-TEL-FGFR3 prolif (μM)” value [4]?
Answer: The value was 60.0% at.

Question: Which results are given for `O=C(NCC(F)(F)F)Nc1cccc(-c2cnc3cc(C=NOCCCN4CCCC4)ccn23)c1` [Compound 1-35, 1-(3-{7-[(3-Pyrrolidin-1-yl-propoxyimino)-methyl]-imidazo[1,2-a]pyridin-3-yl}-phenyl)-3-(2,2,2-trifluoro-ethyl)-urea]?
Answer: inhibition at 3 µM ([1]; Mus musculus): 28%; IC50 [2]: 0.023 µM; IC50 [3]: 0.33 µM; GI50 [4]: 560 nM

Question: Which results are given for `COC1CCN(CCCON=Cc2ccn3c(-c4cccc(NC(=O)NCC(F)(F)F)c4)cnc3c2)CC1` [Compound 1-36, 1-[3-(7-{[3-(4-Methoxy-piperidin-1-yl)-propoxyimino]-methyl}-imidazo[1,2-a]pyridin-3-yl)-phenyl]-3-(2,2,2-trifluoro-ethyl)-urea]?
Answer: inhibition at 3 µM ([1]; Mus musculus): 34%; IC50 [2]: 0.024 µM; IC50 [3]: 0.36 µM; GI50 [4]: 380 nM

Question: With `O=C(NCC(F)(F)F)Nc1cccc(-c2cnc3cc(C=NOCCCNC4CCOCC4)ccn23)c1` [Compound 1-37, 1-[3-(7-{[3-(Tetrahydro-pyran-4-ylamino)-propoxyimino]-methyl}-imidazo[1,2-a]pyridin-3-yl)-phenyl]-3-(2,2,2-trifluoro-ethyl)-urea] as the compound, how does the inhibition at 10 µM ([1]; Mus musculus) read?
Answer: The inhibition at 10 µM was 43%.

Question: And the IC50 [2]?
Answer: Its IC50 is 0.028 µM.

Question: What about the IC50 [3] of the same compound?
Answer: The IC50 was 0.27 µM.

Question: What about the GI50 [4] of the same compound?
Answer: Its GI50 is 3500 nM.

Question: For `O=C(NCC(F)(F)F)Nc1cccc(-c2cnc3cc(C=NOCCCN4CCC(O)C4)ccn23)c1` (stereo not shown) [Compound 1-38, 1-[3-(7-{[3-(3-Hydroxy-pyrrolidin-1-yl)-propoxyimino]-methyl}-imidazo[1,2-a]pyridin-3-yl)-phenyl]-3-(2,2,2-trifluoro-ethyl)-urea], which inhibition at 10 µM ([1]; Mus musculus) is on record?
Answer: The inhibition at 10 µM was 21%.

Question: And the IC50 [2]?
Answer: Its IC50 is 0.026 µM.

Question: What about the IC50 [3] of the same compound?
Answer: Its IC50 is 0.39 µM.

Question: What about the GI50 [4] of the same compound?
Answer: Its GI50 is 1800 nM.
